pIC50: −log10 of the molar value.
Tests used:
[1] = test system: H1N1 (influenza A/New Caledonia/20/99); experiment: microbe, parasite or virus in culture; type: cell-based; conditions: H1N1, A549, 48 h
PRXF PC-3M = experiment: Cytotoxicity, propidium iodide based monolayer assay; type: cell-based; conditions: Homo sapiens, 96 h; PRXF PC-3M prostate adeno carcinoma, four days of treatment, T/C=50%; read-out: Absolute IC50
Protocol: (§1) The cytotoxicity was tested for compounds of the invention on five different cell-lines, namely LXFL 1121, MAXF 401, MMXF L-636, PRXF PC-3M and UXF 1138 which are respectively lung large cell carcinoma, breast adeno carcinoma, multiple myeloma, prostate adeno carcinoma and uterine sarcoma.
(§2) A working stock solution of the test compounds was prepared in DMSO at a concentration of 33 mM or 8.25 mM, and small aliquots were stored at −20° C. On each day of an experiment, a frozen aliquot of the working stock solution was thawed and stored at room temperature prior to and during treatment.
(§3) All liquid handling steps were performed using the Tecan Freedom EVO 200 platform. First, serial 2-fold dilutions of the 33 mM DMSO working stock solution were done in DMSO. The DMSO dilutions were then diluted 1:22 into cell culture medium in an intermediate dilution plate. Finally, 10 μl taken from the intermediate dilution plate were transferred to 140 μl/well of the final assay plate. Thus, the DMSO serial dilutions were diluted 1:330 with cell culture medium, and the DMSO concentration in the assay was 0.3% v/v.
(§4) Cell lines were routinely passaged once or twice weekly and maintained in culture for up to 20 passages. Most cell lines were grown at 37° C. in a humidified atmosphere with 5% CO2 in RPMI 1640 medium (25 mM HEPES, with L-glutamine, #FG1385, Biochrom, Berlin, Germany) supplemented with 10% (v/v) fetal calf serum (Sigma, Taufkirchen, Germany) and 0.05 mg/mL gentamicin (Life Technologies, Karlsruhe, Germany).
(§5) A modified propidium iodide (PI) based monolayer assay was used to assess the anti-cancer activity of the compounds. Briefly, cells were harvested from exponential phase cultures, counted and plated in 96 well flat-bottom microtiter plates at a cell density of 4,000 to 40,000 cells/well dependent on the cell line's growth rate. The individual seeding density for each cell line ensure exponential growth conditions over the whole or at least the bigger part of the treatment period. After a 24 h recovery period, to allow the cells to resume exponential growth, 10 μl of culture medium (6 control wells/cell line/plate) or of culture medium with test compounds were added. Compounds were applied at ten concentrations in 2-fold increments in duplicates up to 25 μM or 100 μM and treatment continued for four days. After four days of treatment, cells were next washed with 200 μl PBS to remove dead cells and debris, then 200 μl of a solution containing 7 μg/ml propidium iodide (PI) and 0.1% (v/v) Triton X-100 was added. After an incubation period of 1-2 hours at room temperature, fluorescence (FU) was measured using the Enspire Multimode Plate Reader (excitation λ=530 nm, emission k=620 nm) to quantify the amount of attached viable cells.
(§6) Drug effects were expressed in terms of the percentage of the fluorescence signal, obtained by comparison of the mean signal in the treated wells with the mean signal of the untreated controls (expressed by the test-versus-control value, T/C−value [%]):
(§7) [formula] IC values reported reflect the concentration of the test compound that achieves T/C=50%. Calculation was done by 4 parameter non-linear curve fit.

UXF 1138 = experiment: as above; type: cell-based; conditions: 96 h; UXF 1138 uterine sarcoma, four days of treatment, T/C=50%; read-out: Absolute IC50
Protocol: as §1, §2, §3, §4, §5, §6, §7

[2] = molecular target: T1, CISD1 Gene Product (mitoNEET) (Homo sapiens, UniProt Q9NZ45); experiment: Stability of Fe-S cluster binding of purified NEET protein (absorbance 458 nm); type: biochemical; conditions: mitoNEET 20 μM, compound 60 μM
T1 sequence (Q9NZ45 33-108 limits assumed): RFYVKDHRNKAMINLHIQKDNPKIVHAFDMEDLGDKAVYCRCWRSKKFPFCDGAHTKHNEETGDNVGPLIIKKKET
Protocol: (§8) The modulator effect on the NEET proteins encoded by human CISD1, CISD2, and CISD3 genes by the compounds of the invention has been tested and is reported below. Particularly, the biochemical function of the NEET proteins is measured by the stability of Fe—S cluster binding of the purified NEET proteins.
(§9) The Fe—S cluster binding capacity of NEET proteins is known to be coordinated by four amino-acids in a stretch of 16 (three Cysteine and one Histidine). As the lability of the Fe—S cluster of NEET proteins is sensitive to the environment, cluster stability measurements are one of the measures of interactions of NEET proteins with small molecules and compounds. NEET protein/2Fe-2S cluster stability can be assessed by monitoring the decay in absorbance of its characteristic 458-nm peak (characteristic of the oxidized 2Fe-2S cluster) over time. Each NEET protein (mitoNEET, NAF-1 and Miner 2) was tested for its Fe—S binding in the absence or presence of a compound according to the invention (see table 4 below). The rate of cluster release (time in minutes to achieve 50% loss of bound Fe—S cluster) was compared for each NEET protein in the presence of one of the compounds of the invention (in a 1:3 protein:compound molar ratio) relative to each protein alone.
(§10) At pH 6, all the three NEET proteins (mitoNEET, NAF-1 and Miner 2) have a characteristic rate of loss of the bound Fe—S cluster that can be measured by the decrease of absorbance at wavelength 458 nm over time, using a spectrophotometer. Thus, Bis-Tris buffer (100 mM Bis-Tris pH6, 100 mM Nacl) was used at pH 6 to dilute either DMSO (Blank sample: Bis-Tris Buffer pH 6, 66 μM DMSO), DMSO and one of the three NEET proteins (Control sample: Bis-Tris Buffer pH 6, 66 μM DMSO, 20 μM purified NEET protein) or DMSO, one of the three NEET proteins and a compound of the invention (Test sample: Bis-Tris Buffer pH 6, 66 μM DMSO, 20 μM purified NEET protein, 60 μM compound of the invention).
(§11) A reaction mix containing DMSO diluted in the Bis-Tris Buffer with or without a compound of the invention was prepared. The purified NEET protein was the last component added to the reaction mix which was then aliquoted into 4 replicates in 96 wells plates. The absorbance at wavelength 458 nm was taken at 5 minutes intervals at 37° C. with a spectrofluorimeter. The assay run time for CISD2 gene product (NAF-1) was 500 minutes and 180 minutes for both the CISD1gene product (mitoNEET) and the CISD3 gene product (Miner2).
(§12) In addition to time monitoring, residual bound Fe—S cluster to NEET protein was measured at the final point of the spectrometry assay for each Test sample and compared to the Control sample data (in parenthesis table 4). This residual binding is measured by the differential percentage between the absorbance 458 nm at time zero and the absorbance 458 nm at the end of the experiment (i.e. respectively 500 or 180 minutes as described here above), showing the percentage of NEET protein still able to bind a Fe—S cluster.
(§13) Analysis of the absorbance enables the time for which 50% loss of bound Fe—S cluster is reached (i.e. a 50% absorbance decrease at 458 nm) for each Test sample and each Control sample (in parenthesis table 4) to be determined. The data are then compared to determine whether the compound of the invention stabilizes or destabilizes the NEET protein/Fe—S cluster binding.

[3] = molecular target: T2, CISD2 Gene Product (NAF-1) (Homo sapiens, UniProt Q8N5K1); experiment: as above; type: biochemical
T2 sequence (Q8N5K1 57-135 limits assumed): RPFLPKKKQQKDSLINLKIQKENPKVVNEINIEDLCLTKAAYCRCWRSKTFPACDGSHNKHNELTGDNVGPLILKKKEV
Protocol: as §8, §9, §10, §11, §12, §13

[4] = molecular target: T3, CISD3 Gene Product (Miner2) (Homo sapiens, UniProt P0C7P0); experiment: as above; type: biochemical; conditions: compound 60 μM
T3 sequence (P0C7P0 15-127): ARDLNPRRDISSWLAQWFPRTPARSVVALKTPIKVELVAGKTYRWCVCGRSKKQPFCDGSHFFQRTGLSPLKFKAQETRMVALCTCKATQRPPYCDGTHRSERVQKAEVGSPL
Protocol: as §8, §9, §10, §11, §12, §13

LXFL 1121 = experiment: Cytotoxicity, propidium iodide based monolayer assay; conditions: 96 h; LXFL 1121 lung large cell carcinoma, four days of treatment, T/C=50%; read-out: Absolute IC50
Protocol: as §1, §2, §3
Cell lines were routinely passaged once or twice weekly and maintained in culture for up to 20 passages. […]
A modified propidium iodide (PI) based monolayer assay was used to assess the anti-cancer activity of the compounds. Briefly, cells were harvested from exponential phase cultures, counted and plated in 96 well flat-bottom microtiter plates at a cell density of 4,000 to 40,000 cells/well dependent on the cell line's growth rate. […] After an incubation period of 1-2 hours at room temperature, fluorescence (FU) was measured using the Enspire Multimode Plate Reader (excitation λ=530 nm, emission k=620 nm) to quantify the amount of attached viable cells.
Drug effects were expressed in terms of the percentage of the fluorescence signal, obtained by comparison of the mean signal in the treated wells with the mean signal of the untreated controls (expressed by the test-versus-control value, T/C−value [%]): […]

MAXF 401 = experiment: as above; type: cell-based; conditions: Homo sapiens, MAXF401, 96 h; MAXF 401 breast adeno carcinoma, four days of treatment, T/C=50%; read-out: Absolute IC50
Protocol: as §1, §2, §3, §4, §5, §6, §7

SMILES	pIC50 [1]	pIC50 (PRXF PC-3M)	pIC50 (UXF 1138)	Time (in minutes) to achieve 50% loss of bound cluster (Absorbance 458 nm) ([2]; pH 6, 37° C., run time 180 minutes, vehicle control 80)	Residual cluster bound at end of experiment (Percentage Absorbance 458 nm at time zero) ([2]; pH 6, at 180 minutes, vehicle control 16%)	Time (in minutes) to achieve 50% loss of bound cluster (Absorbance 458 nm) ([3]; NAF-1 20 μM, compound 60 μM, pH 6, 37° C., run time 500 minutes, vehicle control 310 or 210)	Residual cluster bound at end of experiment (Percentage Absorbance 458 nm at time zero) ([3]; NAF-1 20 μM, compound 60 μM, pH 6, at 500 minutes, vehicle control 3%)	Stabiliser or destabiliser of Fe-S cluster binding by CISD2 Gene Product (NAF-1) ([3]; time to 50% cluster loss changed by more than 25% compared to the Control sample, at the concentrations tested)	Residual cluster bound at end of experiment (Percentage Absorbance 458 nm at time zero) ([4]; CISD3 gene product 20 μM, pH 6, at 180 minutes, vehicle control 11%)	Time (in minutes) to achieve 50% loss of bound cluster (Absorbance 458 nm) ([4]; Miner2 20 μM, pH 6, 37° C., run time 180 minutes, vehicle control 60)	pIC50 (LXFL 1121)	pIC50 (MAXF 401)
CC1(C)Cc2c(sc(NC(=O)c3ccc(NC4CCOCC4)cc3)c2C(=O)O)C(C)(C)C1 [Compound #35, 5,5,7,7-Tetramethyl-2-[[4-(tetrahydropyran-4-ylamino)benzoyl]amino]-4,6-dihydrobenzothiophene-3-carboxylic acid]	7.77	6.15	6.13	85 (80) minutes	26% (16%)	220 (310) minutes	13% (3%)	destabilisers	20% (11%)	50 (60) minutes	–	–
CC1(C)CCc2c(sc(NC(=O)c3ccc(N4CCOCC4)cc3)c2C(=O)O)C1 [Compound #22, 6,6-Dimethyl-2-[(4-morpholinobenzoyl)amino]-5,7-dihydro-4H-benzothiophene-3-carboxylic acid]	6.92	6.15	6.48	–	–	–	–	–	–	–	6.26	6.27

Reference: patent US11492347B2 (ENYO PHARMA, priority 2018, dated 2022)
